# From paper PMC9293909 (Nature Communications, 2022)
# “And” between values parts separate entries of the source, which are not always exact repeats. Equal entries are not always repeated. Where two headings read alike, the source gives them in different places.
# Key:
# hA1R = molecular target: T1, hA1R (Homo sapiens, UniProt P30542); experiment: Radioligand displacement of [3H]-DPCPX, CHO-K1-hA1R membranes; type: binding; set-up: expressed in transfected cells; [3H]DPCPX binding, agonist displacement (Fig. 1bii): unit not given here; conditions: for [3H]DPCPX binding, agonist displacement (Fig. 1bii): individual repeats and mean
# T1 sequence (P30542 1-326): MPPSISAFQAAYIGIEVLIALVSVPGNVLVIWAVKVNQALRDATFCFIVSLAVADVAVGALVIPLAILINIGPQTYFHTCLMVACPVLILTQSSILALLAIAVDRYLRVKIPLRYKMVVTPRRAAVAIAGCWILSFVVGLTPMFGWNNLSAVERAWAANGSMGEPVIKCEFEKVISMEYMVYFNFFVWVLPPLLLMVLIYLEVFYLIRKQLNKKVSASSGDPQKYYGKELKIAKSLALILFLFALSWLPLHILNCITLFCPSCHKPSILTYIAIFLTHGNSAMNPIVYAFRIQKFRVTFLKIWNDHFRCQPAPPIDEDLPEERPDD
# Procedure: Radioligand displacement assays were conducted using crude membrane preparations (100 μg protein per tube) acquired from homogenisation of CHO-K1-hA1R cells in ice-cold buffer (2 mM MgCl2, 20 mM HEPES, pH 7.4). […] Non-specific binding was determined in the presence of 10 μM DPCPX. Membrane incubations were conducted in Sterilin™ scintillation vials (Thermo Fisher Scientific; Wilmington, Massachusetts, USA) for 60 min at room temperature. Free radioligand was separated from bound radioligand by filtration through Whatman® glass microfiber GF/B 25 mm filters (Sigma-Aldrich). Each filter was then placed in a Sterilin™ scintillation vial and radioactivity determined by: addition of 4 mL of Ultima Gold XR liquid scintillant (PerkinElmer), overnight incubation at room temperature and the retained radioactivity determined using a Beckman Coulter LS 6500 Multi-purpose scintillation counter (Beckman Coulter Inc.; Indiana, USA).
# Radioligand displacement curves were fitted to the one-site competition binding equation yielding log(Ki) values.
# hA1R:Goa = molecular target: T2, hA1R:Goa (Homo sapiens, UniProt P30542); experiment: TRUPATH G protein dissociation BRET assay, Goa; type: cell-based; conditions: Fig2h
# T2 construct: cDNA resource centre (pcDNA3.1-A1R)
# T2 sequence (P09471 2-354 partner limits assumed, one chain of several): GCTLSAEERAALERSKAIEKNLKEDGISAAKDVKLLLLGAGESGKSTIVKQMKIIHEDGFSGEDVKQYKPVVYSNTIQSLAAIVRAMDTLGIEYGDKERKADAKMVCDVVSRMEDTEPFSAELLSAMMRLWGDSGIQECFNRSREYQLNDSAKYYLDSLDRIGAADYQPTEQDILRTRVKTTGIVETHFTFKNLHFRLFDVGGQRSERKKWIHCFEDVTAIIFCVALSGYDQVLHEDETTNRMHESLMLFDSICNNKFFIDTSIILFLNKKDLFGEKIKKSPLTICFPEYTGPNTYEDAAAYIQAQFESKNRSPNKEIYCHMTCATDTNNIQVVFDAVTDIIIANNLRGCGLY
# T2 sequence (P16520 whole entry partner, one chain of several): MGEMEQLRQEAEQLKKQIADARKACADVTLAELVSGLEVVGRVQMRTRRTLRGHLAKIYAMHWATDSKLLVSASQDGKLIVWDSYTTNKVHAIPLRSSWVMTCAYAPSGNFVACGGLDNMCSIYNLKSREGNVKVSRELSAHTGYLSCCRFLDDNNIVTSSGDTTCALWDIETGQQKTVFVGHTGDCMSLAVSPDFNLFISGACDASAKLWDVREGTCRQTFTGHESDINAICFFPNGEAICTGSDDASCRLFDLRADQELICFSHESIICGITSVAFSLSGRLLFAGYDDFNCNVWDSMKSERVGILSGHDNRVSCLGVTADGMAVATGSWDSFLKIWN
# T2 sequence (Q9UK08 1-67 partner limits assumed, one chain of several): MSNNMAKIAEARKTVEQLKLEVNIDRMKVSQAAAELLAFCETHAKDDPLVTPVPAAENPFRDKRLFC
# Procedure: Cells were plated in a density of 1,500,000 cells/well in a 6-well plate and grown in DMEM /F-12 GlutaMAX™ media (Thermo Fisher Scientific, UK) supplemented with 10% FBS (Sigma, UK) and 1% AA (Sigma, UK). After being grown overnight, cells in each well were transfected using polyethylenimine 25 kDa (PEI, Polysciences Inc., Germany) at a 6:1 ratio of PEI to DNA, diluted in 150 mM NaCl. […] Gɑ (either Goa-RLuc8, or Gob-RLuc8), Gβ3 and Gγ8-GFP2 constructs were purchased as part of the TRUPATH sensor kit from Addgene, pcDNA3.1-A1R was obtained from cDNA resource centre, and pcDNA3.1 (-) zeo was purchased from Invitrogen. After 24 h, cells were trypsinised and re-seeded onto poly-L-lysine (PLL)-coated white 96-well plates (Greiner, UK) at the density of 50,000 cells/well in a complete DMEM/F-12 medium. After grown overnight, the culture media was discarded and replaced with 80 μl assay buffer (1× Hank’s balanced salt solution (HBSS) with calcium, supplemented with 20 mM HEPES and 0.1% BSA at pH 7.4). The assay was started by adding 10 μl of coelenterazine 400a (Nanolight technology, USA) to a final concentration of 5 μM. The plates were then incubated in the dark for 5 min, prior to the addition of 10 μl compounds (in a range of 0.01 nM – 1 µM). […] BRET signal was recorded for 30 min on a Mithras LB940 plate reader allowing sequential integration of signal detected from GFP2 and Rluc8.
# hA2AR [1] = molecular target: T3, hA2AR (Homo sapiens, UniProt P29274); experiment: cAMP accumulation at hA2AR; type: cell-based
# T3 construct: expressed in transfected cells; host or cells: CHO-K1
# T3 sequence (P29274 whole entry): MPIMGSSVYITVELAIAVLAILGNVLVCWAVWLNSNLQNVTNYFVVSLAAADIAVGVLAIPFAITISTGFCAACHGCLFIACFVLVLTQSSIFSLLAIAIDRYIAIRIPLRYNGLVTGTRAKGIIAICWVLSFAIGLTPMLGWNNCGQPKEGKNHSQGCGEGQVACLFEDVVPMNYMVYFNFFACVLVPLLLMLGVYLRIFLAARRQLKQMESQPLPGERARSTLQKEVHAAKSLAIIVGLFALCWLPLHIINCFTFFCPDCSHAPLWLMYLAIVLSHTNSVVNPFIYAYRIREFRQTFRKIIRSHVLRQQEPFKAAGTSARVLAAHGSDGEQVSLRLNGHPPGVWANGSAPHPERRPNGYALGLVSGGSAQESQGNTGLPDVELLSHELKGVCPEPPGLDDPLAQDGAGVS
# Procedure: CHO cell lines expressing ARs of interest (including mutants of the hA1R) were routinely cultured in Ham’s F-12 nutrient mix supplemented with 10% foetal bovine serum (FBS), at 37 °C with 5% CO2, in a humidified atmosphere.
# hA2AR [2] = molecular target: T3, hA2AR; experiment: Binding affinity at hA2AR (Supplementary Table 1); conditions: tracer not given (footnote d); read-out: pKi hA2AR (converted)
# [3] = molecular target: T4, hA1R Q293^8.48 alanine mutant (Homo sapiens, UniProt P30542, Q293A); experiment: cAMP inhibition, Flp-In-CHO hA1R Q293A; type: cell-based; conditions: Fig4j
# T4 construct: expressed in transfected cells
# T4 sequence (P30542 whole entry Q293A): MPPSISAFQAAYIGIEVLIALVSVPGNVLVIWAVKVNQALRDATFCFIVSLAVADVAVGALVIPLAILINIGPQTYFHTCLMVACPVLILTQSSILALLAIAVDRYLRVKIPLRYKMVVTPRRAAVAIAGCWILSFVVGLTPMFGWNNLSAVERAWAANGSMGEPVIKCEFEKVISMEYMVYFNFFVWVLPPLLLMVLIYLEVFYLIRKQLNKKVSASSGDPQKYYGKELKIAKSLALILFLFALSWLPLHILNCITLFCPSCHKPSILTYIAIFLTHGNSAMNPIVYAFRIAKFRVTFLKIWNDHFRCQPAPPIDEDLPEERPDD
# Source text: Cell lines were maintained using standard subculturing routines as guided by the European Collection of Cell Culture (ECACC) and checked annually for mycoplasma infection using an EZ-PCR mycoplasma test kit from Biological Industries (Kibbutz Beit-Haemek, Israel). To investigate the signalling properties of the rat A3R (rA3R) and mutants of the human A1R (hA1R), stable cell lines were generated using Flp-In-CHO cells (ThermoFisher - R75807). Untagged hA1R from sigNanoLuciferase (Nluc)-A1R in pcDNA3.1+ and untagged rA3R from sigNluc-A3R in pcDNA3.1 + (both gifted by Dr Steve Briddon (University of Nottingham)) were cloned into the pcDNA5/FRT expression vector (Thermo Fisher Scientific). Mutations within the hA1R were made using the QuikChange Lightening Site-Directed Mutagenesis Kit (Agilent Technologies) in accordance with the manufacturer’s instructions. Constructs for generating Goa/b interfering and scrambled peptides were generated by PCR and cloned into the BamHI/HindIII site of pcDNA3.1- as described in Gilchrist et al.[60],. Prior to the initiator codon a Kozak sequence was included for enhanced translation. The peptide sequences used were: for Goa […], for Gob […], and for the scrambled peptide […] was used. Constructs were sequenced to confirm fidelity. […]
"EC50 (hA1R:Goa; individual replicate, read-out: TRUPATH Goa potency (converted))","EC50 (hA1R:Goa; n 8, read-out: TRUPATH Goa potency, Average (converted)) [nM]","EC50 (hA2AR [1]; half-maximal response, cAMP, read-out: pEC50 hA2AR (converted)) [nM]",Range hA2AR (hA2AR [1]; range of response as percentage of response to 10 μM forskolin) [%],Ki (hA2AR [2]) [nM],"Ki (hA1R; displacement of [3H]-DPCPX, CHO-K1-hA1R, read-out: pKi hA1R (converted)) [nM]","IC50 ([3]; individual replicate, read-out: cAMP inhibition potency, 293A (converted))","IC50 ([3]; read-out: cAMP inhibition potency, 293A, Average (converted)) [nM]",SMILES,"[3H]DPCPX binding, agonist displacement (Fig. 1bii) (hA1R; Log [Agonist] -4 (printed 100 nM), individual repeat)","[3H]DPCPX binding, agonist displacement (Fig. 1bii) (hA1R; Log [Agonist] -4 (printed 100 nM), mean)","[3H]DPCPX binding, agonist displacement (Fig. 1bii) (hA1R; Log [Agonist] -5 (10 nM [sic]), individual repeat)","[3H]DPCPX binding, agonist displacement (Fig. 1bii) (hA1R; Log [Agonist] -5 (10 nM [sic]), mean)","[3H]DPCPX binding, agonist displacement (Fig. 1bii) (hA1R; Log [Agonist] -6)","[3H]DPCPX binding, agonist displacement (Fig. 1bii) (hA1R; Log [Agonist] -6, mean)","[3H]DPCPX binding, agonist displacement (Fig. 1bii) (hA1R; Log [Agonist] -7 (0.1 nM [sic]))","[3H]DPCPX binding, agonist displacement (Fig. 1bii) (hA1R; Log [Agonist] -7 (0.1 nM [sic]), mean)","[3H]DPCPX binding, agonist displacement (Fig. 1bii) (hA1R; Log [Agonist] -8 (0.01 nM [sic]))","[3H]DPCPX binding, agonist displacement (Fig. 1bii) (hA1R; Log [Agonist] -8 (0.01 nM [sic]), mean)","[3H]DPCPX binding, agonist displacement (Fig. 1bii) (hA1R; Log [Agonist] -9 (0.001 nM [sic]))","[3H]DPCPX binding, agonist displacement (Fig. 1bii) (hA1R; Log [Agonist] -9 (0.001 nM [sic]), mean)"
,,,,,,,,"OC[C@H]1O[C@@H](n2cnc3c(NC4CCCC4)ncnc32)[C@H](O)[C@@H]1O [CPA, N^6-Cyclopentyladenosine]",20.2642 and 4.4733 and -15.7273 and -5.192 and 4.0456,1.6,11.1387 and 7.285 and -0.8835 and -5.9519 and 7.949,3.9,33.4844 and 35.0135 and 37.1916 and 34.6828 and 36.5376,35.4,68.5034 and 65.597 and 37.2069 and 75.7359 and 85.6552,66.5,82.5188 and 76.3158 and 97.3862 and 99.1923 and 79.3577,87.0,135.427 and 110.895 and 123.979 and 110.925 and 95.1958,115.3
64.6 nM and 83.2 nM and 81.3 nM and 37.2 nM and 27.5 nM and 44.7 nM and 30.2 nM,45.7,3240,41.66 ± 6.1,> 100000,1550,3.61 nM and 7.23 nM and 5 nM and 4.17 nM and 2.86 nM and 3.71 nM,4.27,"OC[C@H]1O[C@@H](n2cnc3c(N[C@@H]4CCC[C@H]4O)ncnc32)[C@H](O)[C@@H]1O [HOCPA, (2 R,3 R,4 S,5 R)−2-(6-{[(1 R,2 R)−2-hydroxycyclopentyl]amino}−9H-purin-9-yl)−5-(hydroxymethyl)oxolane-3,4-diol]",,,,,,,,,,,,
